We go through 29 compounds from patent US10604523B2, “1-aryl-4-methyl-[1,2,4]triazolo[4,3-a]quinoxaline derivatives” (Janssen Pharmaceutica NV, priority 2011, dated 2020).

Read-outs that look alike come from different tables or passages of the source.

Experiment [1] has as its target T1, Human recombinant PDE2A (hPDE2A) (Homo sapiens, UniProt O00408).
T1 construct: made in house; host or cells: Sf9 insect cells (baculovirus)
Briefly: In vitro assay PDE2A (SPA, 3H-cGMP). The format is biochemical. The following applies: read-out: pIC50 PDE2 (converted).

Experiment [2] concerns the target T2, Rat recombinant PDE10A (rPDE10A2) (Rattus norvegicus, UniProt Q9QYJ6).
T2 construct: made in house; host or cells: Sf9 insect cells (baculovirus)
T2 sequence (Q9QYJ6 1-794): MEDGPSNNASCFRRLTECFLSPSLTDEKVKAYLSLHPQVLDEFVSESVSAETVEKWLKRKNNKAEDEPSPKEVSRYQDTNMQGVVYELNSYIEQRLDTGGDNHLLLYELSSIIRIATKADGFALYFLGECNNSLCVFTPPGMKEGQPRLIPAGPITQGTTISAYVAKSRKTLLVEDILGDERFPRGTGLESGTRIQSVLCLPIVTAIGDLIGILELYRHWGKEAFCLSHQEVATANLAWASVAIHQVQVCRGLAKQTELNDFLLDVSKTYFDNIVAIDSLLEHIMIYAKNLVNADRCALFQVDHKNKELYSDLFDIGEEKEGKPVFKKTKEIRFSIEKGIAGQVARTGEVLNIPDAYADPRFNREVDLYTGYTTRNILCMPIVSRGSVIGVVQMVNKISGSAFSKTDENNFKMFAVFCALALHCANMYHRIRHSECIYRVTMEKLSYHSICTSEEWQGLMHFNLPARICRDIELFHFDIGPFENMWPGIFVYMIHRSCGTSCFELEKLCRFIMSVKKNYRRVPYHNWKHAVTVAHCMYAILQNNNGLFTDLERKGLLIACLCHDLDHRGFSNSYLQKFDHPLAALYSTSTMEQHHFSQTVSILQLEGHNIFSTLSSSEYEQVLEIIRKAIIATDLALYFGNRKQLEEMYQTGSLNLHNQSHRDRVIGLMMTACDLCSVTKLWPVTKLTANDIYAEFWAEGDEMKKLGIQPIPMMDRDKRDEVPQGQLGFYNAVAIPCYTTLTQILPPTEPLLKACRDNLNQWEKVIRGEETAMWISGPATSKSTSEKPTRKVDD
Briefly: In vitro assay PDE10A (SPA, 3H-cAMP). Type of experiment: biochemical. The following applies: read-out: PIC50 PDE10 (converted).

The subject of experiment [3] is Apomorphine-induced agitation. Briefly: Reversal of Apomorphine-induced Agitation in Rats (APO). The format is in vivo, rat. The following applies: for PO Max effect (cumulative agitation score over 60 min) / SC Max effect (cumulative agitation score over 60 min): apomorphine 1.0 mg/kg i.v.; for PO LAD (lowest active dose) / SC LAD (lowest active dose): lowest dose at which ≥67% tested animals respond; for SC Dose at max effect / SC Max effect (cumulative agitation score over 60 min) / SC LAD (lowest active dose): subcutaneous route.
Method: Apomorphine (1.0 mg/kg, i.v.)-induced agitation was scored every 5 min over the first hour after injection of apomorphine. The score system was: (3) pronounced, (2) moderate, (1) slight, and (0) absent. […] For the present purpose, the cumulative agitation score over the whole 60-min observation period was used as a measure to describe the maximum effect (Max effect).

T1 sequence (O00408 whole entry): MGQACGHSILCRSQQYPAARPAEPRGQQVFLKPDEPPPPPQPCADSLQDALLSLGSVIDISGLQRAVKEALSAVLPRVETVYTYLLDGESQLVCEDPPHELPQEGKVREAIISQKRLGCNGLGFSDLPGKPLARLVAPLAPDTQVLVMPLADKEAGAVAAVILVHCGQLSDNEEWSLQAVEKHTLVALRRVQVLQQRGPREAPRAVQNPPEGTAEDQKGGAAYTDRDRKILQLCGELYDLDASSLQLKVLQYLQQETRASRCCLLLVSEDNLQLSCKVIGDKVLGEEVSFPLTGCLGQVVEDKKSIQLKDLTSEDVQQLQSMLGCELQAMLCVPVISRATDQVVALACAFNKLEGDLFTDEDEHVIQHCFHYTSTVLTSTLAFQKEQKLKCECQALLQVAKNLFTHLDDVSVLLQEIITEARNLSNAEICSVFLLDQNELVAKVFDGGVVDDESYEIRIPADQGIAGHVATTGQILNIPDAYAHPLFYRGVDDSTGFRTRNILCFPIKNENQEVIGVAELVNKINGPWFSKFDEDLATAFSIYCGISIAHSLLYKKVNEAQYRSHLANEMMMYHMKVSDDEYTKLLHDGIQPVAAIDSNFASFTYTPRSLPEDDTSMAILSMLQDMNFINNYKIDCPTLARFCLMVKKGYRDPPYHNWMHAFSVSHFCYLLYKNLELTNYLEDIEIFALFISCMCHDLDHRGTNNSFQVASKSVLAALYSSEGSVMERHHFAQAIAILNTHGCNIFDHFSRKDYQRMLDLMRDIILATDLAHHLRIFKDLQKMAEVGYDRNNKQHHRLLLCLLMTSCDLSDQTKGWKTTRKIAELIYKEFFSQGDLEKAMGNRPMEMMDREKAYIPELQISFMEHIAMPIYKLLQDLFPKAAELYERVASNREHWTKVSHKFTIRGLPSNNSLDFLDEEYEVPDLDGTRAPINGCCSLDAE

In the case of `Cc1nc2ccc(C(=O)NCc3cccnc3)cc2n2c(-c3ccccc3)nnc12` [Compound B-56], in experiment [1], the IC50 is 3.98 nM. Further, the IC50 in experiment [2] was 44.7 nM. Moreover, in experiment [3], the PO Dose at Max Effect was 10 mg/kg, the “PO Max effect (cumulative agitation score over 60 min)” value is reported as 21 and the PO LAD (lowest active dose) was greater than 10 mg/kg.
Consider `COc1cc(CNC(=O)c2ccc3nc(C)c4nnc(-c5ccccc5Cl)n4c3c2)cc(OC)c1OC` [Compound B-66], for which the IC50 in experiment [1] is 5.89 nM. Besides, in experiment [2], the IC50 was 37.2 nM. In experiment [3], the PO Dose at Max Effect came to 10 mg/kg, the “PO Max effect (cumulative agitation score over 60 min)” value is given as 21 and the PO LAD (lowest active dose) is greater than 10 mg/kg.
Consider `CCOc1ccc(Cl)c(-c2nnc3c(C)nc4ccc(N5CCN(C)CC5)cc4n23)c1` [Compound B-102], for which, in experiment [1], the IC50 was 18.2 nM. In experiment [2], the IC50 was 162 nM. Besides, in experiment [3], the SC Dose at max effect is 10 mg/kg, the “SC Max effect (cumulative agitation score over 60 min)” value is given as 21 and the SC LAD (lowest active dose) was greater than 10 mg/kg.
`Cc1nc2ccc(C(=O)NCCCc3ccccc3)cc2n2c(-c3ccccc3)nnc12` [Compound B-77]: the IC50 in experiment [1] is 7.41 nM. Further, the IC50 in experiment [2] is 77.6 nM. Moreover, in experiment [3], the PO Dose at Max Effect stood at 2.5 mg/kg, the “PO Max effect (cumulative agitation score over 60 min)” value came to 21 and the PO LAD (lowest active dose) is greater than 2.5 mg/kg.
Consider `Cc1nc2ccc(C(O)C(F)(F)F)cc2n2c(-c3ccccc3Cl)nnc12` (stereo not shown) [Compound B-21, 1-[1-(2-Chlorophenyl)-4-methyl[1,2,4]triazolo[4,3-a]quinoxalin-8-yl]-2,2,2-trifluoroethanol], for which the IC50 in experiment [1] was 6.46 nM. Further, in experiment [2], the IC50 is 41.7 nM. Moreover, in experiment [3], the PO Dose at Max Effect came out at 10 mg/kg, the “PO Max effect (cumulative agitation score over 60 min)” value is recorded as 24 and the PO LAD (lowest active dose) is greater than 10 mg/kg.
With `Cc1nc2ccc(CN3CCOC(F)(C(F)(F)F)C3)cc2n2c(-c3ccccc3Cl)nnc12` (stereo not shown) [Compound B-114], the IC50 in experiment [1] is 24.5 nM. Moreover, the IC50 in experiment [2] is 105 nM. In addition, in experiment [3], the PO Dose at Max Effect is 10 mg/kg, the “PO Max effect (cumulative agitation score over 60 min)” value was determined as 24 and the PO LAD (lowest active dose) was greater than 10 mg/kg.
Regarding `CCOc1ccc(Cl)c(-c2nnc3c(C)nc4ccc(CNc5cccnc5)cc4n23)c1` [Compound B-103], the IC50 in experiment [1] was 18.6 nM. The IC50 in experiment [2] was 178 nM. Also, in experiment [3], the SC Dose at max effect amounted to 10 mg/kg, the “SC Max effect (cumulative agitation score over 60 min)” value is listed as 21 and the SC LAD (lowest active dose) was greater than 10 mg/kg.
Take `Cc1ncccc1-c1nnc2c(C)nc3ccc(Br)cc3n12` [Compound B-131]: in experiment [1], the IC50 was 29.5 nM. Further, the IC50 in experiment [2] is 132 nM. In experiment [3], the PO Dose at Max Effect was 10 mg/kg, the “PO Max effect (cumulative agitation score over 60 min)” value was 17 and the PO LAD (lowest active dose) was 10 mg/kg.
As for `Cc1nc2ccc(CNc3cccnc3)cc2n2c(-c3ccccc3Cl)nnc12` [Compound B-50], the IC50 in experiment [1] was 2.34 nM. Further, the IC50 in experiment [2] is 11 nM. Moreover, in experiment [3], the SC Dose at max effect is 10 mg/kg, the “SC Max effect (cumulative agitation score over 60 min)” value is recorded as 22 and the SC LAD (lowest active dose) was greater than 10 mg/kg.
`Cc1nc2ccc(CN3CCN(C)CC3)cc2n2c(-c3ccccc3Cl)nnc12` [Compound B-73]: the IC50 in experiment [1] is 6.76 nM. In experiment [2] (-log IC50 expressed in mol/L, rPDE10A2, 60 nM cAMP), the IC50 was 67.6 nM. Moreover, in experiment [3], the SC Dose at max effect is 10 mg/kg, the “SC Max effect (cumulative agitation score over 60 min)” value came to 19 and the SC LAD (lowest active dose) turned out to be 10 mg/kg.
As to `Cc1nc2ccc(C(=O)NCc3ccccc3)cc2n2c(-c3ccccc3Cl)nnc12` [Compound B-34], the IC50 in experiment [1] was 0.372 nM. Besides, the IC50 in experiment [2] is 12 nM. In experiment [3], the PO Dose at Max Effect worked out at 2.5 mg/kg, the “PO Max effect (cumulative agitation score over 60 min)” value is given as 22 and the PO LAD (lowest active dose) was greater than 2.5 mg/kg.
In the case of `Cc1ccc(Cl)c(-c2nnc3c(C)nc4ccc(C(=O)NCc5ccccn5)cc4n23)c1` [Compound B-44], in experiment [1], the IC50 is 1.78 nM. Besides, the IC50 in experiment [2] is 35.5 nM. Besides, in experiment [3], the PO Dose at Max Effect came to 10 mg/kg, the “PO Max effect (cumulative agitation score over 60 min)” value was 21 and the PO LAD (lowest active dose) was greater than 10 mg/kg.
Turning to `Cc1nc2ccc(CN3CCOC(CF)C3)cc2n2c(-c3ccccc3Cl)nnc12` (stereo not shown) [Compound B-59], the IC50 in experiment [1] was 4.9 nM. The IC50 in experiment [2] was 23.4 nM. Further, in experiment [3], the SC Dose at max effect was 10 mg/kg, the “SC Max effect (cumulative agitation score over 60 min)” value was determined as 15 and the SC LAD (lowest active dose) was 10 mg/kg.
For the compound `CCOc1ccc(Cl)c(-c2nnc3c(C)nc4ccc(Br)cc4n23)c1` [Compound B-85], in experiment [1], the IC50 was 10.7 nM. For the same compound, in experiment [2], the IC50 is 123 nM. In addition, in experiment [3], the PO Dose at Max Effect is 10 mg/kg, the “PO Max effect (cumulative agitation score over 60 min)” value came to 21 and the PO LAD (lowest active dose) was greater than 10 mg/kg.
Turning to `COCCNc1ccc2nc(C)c3nnc(-c4ccccc4Cl)n3c2c1` [Compound B-67], the IC50 in experiment [1] is 6.17 nM. In experiment [2], the IC50 was 15.5 nM. Also, in experiment [3], the PO Dose at Max Effect was determined as 10 mg/kg, the “PO Max effect (cumulative agitation score over 60 min)” value is 21 and the PO LAD (lowest active dose) was greater than 10 mg/kg.
The corresponding values for `Cc1nc2ccc(OC(F)(F)F)cc2n2c(-c3ccccc3Cl)nnc12` [Compound B-4a, 1-(2-Chlorophenyl)-4-methyl-8-(trifluoromethoxy)[1,2,4]triazolo[4,3-a]quinoxaline] are 8.32 nM, 24.5 nM, 10 mg/kg, 21 and greater than 10 mg/kg.
In the same order, the values of `Cc1nc2ccc(OC(C)(F)F)cc2n2c(-c3ccccc3Cl)nnc12` [Compound B-25, 1-(2-Chlorophenyl)-8-(1,1-difluoroethoxy)-4-methyl[1,2,4]triazolo[4,3-a]-quinoxaline] are 3.89 nM, 15.5 nM, 10 mg/kg, 19 and 10 mg/kg.
As for `COc1cc(NC(=O)c2ccc3nc(C)c4nnc(-c5ccccc5Cl)n4c3c2)cc(OC)c1OC` [Compound B-49], the IC50 in experiment [1] is 2.34 nM. In addition, the IC50 in experiment [2] was 77.6 nM. Moreover, in experiment [3], the PO Dose at Max Effect worked out at 10 mg/kg, the “PO Max effect (cumulative agitation score over 60 min)” value is reported as 24 and the PO LAD (lowest active dose) was greater than 10 mg/kg.
For `CCNC(=O)c1ccc2nc(C)c3nnc(-c4ccccn4)n3c2c1` [Compound B-181], the values for the IC50 in experiment [1] and in experiment [2] were 240 nM and 5500 nM, respectively.
Consider `CCNC(c1ccc2nc(C)c3nnc(-c4ccccc4Cl)n3c2c1)C(F)(F)F` (stereo not shown) [Compound B-64], for which the IC50 is 5.75 nM in experiment [1] and 30.2 nM in experiment [2].
Turning to `CCCCOc1ccc(Cl)c(-c2nnc3c(C)nc4ccc(N5CCN(C)CC5)cc4n23)c1` [Compound B-26, 1-(5-Butoxy-2-chlorophenyl)-4-methyl-8-(4-methylpiperazin-1-yl) [1,2,4]triazolo-[4,3-a]quinoxaline], the IC50 is 17.4 nM in experiment [1] and 1260 nM in experiment [2].
On to `CCCCOc1cncc(-c2nnc3c(C)nc4ccc(CNCC5CC5)cc4n23)c1` [Compound B-156], for which the IC50 is 61.7 nM in experiment [1] and 7940 nM in experiment [2].
Consider `COc1ccc2nc(C)c3nnc(-c4cnccc4C)n3c2c1` [Compound B-173], for which the IC50 is 135 nM in experiment [1] and 977 nM in experiment [2].
On to `CCCOc1ccc(Cl)c(-c2nnc3c(C)nc4ccc(N5CCN(C)CC5)cc4n23)c1` [Compound B-117], for which the IC50 is 25.1 nM in experiment [1] and 912 nM in experiment [2].
With `Cc1nc2ccc(CO)cc2n2c(-c3ccccc3)nnc12` [Compound B-29, (4-Methyl-1-phenyl[1,2,4]triazolo[4,3-a]quinoxalin-8-yl)methanol], the IC50 was 44.7 nM in experiment [1] and 380 nM in experiment [2].
As for `Cc1ccncc1-c1nnc2c(C)nc3ccc(C(=O)C4CC4)cc3n12` [Compound B-24, Cyclopropyl [4-methyl-1-(4-methylpyridin-3-yl) [1,2,4]triazolo[4,3-a]quinoxalin-8-yl]methanone], the IC50 is 39.8 nM in experiment [1] and 525 nM in experiment [2].
With `Cc1nc2ccc(CN3CCCC3)cc2n2c(-c3cncc(OCC4CC4)c3)nnc12` [Compound B-208], the IC50 in experiment [1] is 275 nM; in experiment [2], greater than 10000 nM.
In the same order, the values of `CCCCOc1cncc(-c2nnc3c(C)nc4ccc(CN5CCC(F)CC5)cc4n23)c1` [Compound B-201] are 95.5 nM and 5130 nM.
As for `CCCCOc1ccc(Cl)c(-c2nnc3c(C)nc4ccc(CN5CCC(O)CC5)cc4n23)c1` [Compound B-105], the IC50 is 19.1 nM in experiment [1] and 1450 nM in experiment [2].
